# Values of other authors, collected in US20230181675A1, “NOVEL FORMUATIONS” (ARECOR LIMITED, priority 2020, published 2023).
# Details: at 25° C.
row,SMILES,logK metal binding stability constant with respect to zinc ion binding
1,O=C(O)CC(O)(CC(=O)O)C(=O)O [Citrate],4.93
2,"O=C(O)CN(CCN(CC(=O)O)CC(=O)O)CC(=O)O [EDTA, ethylenediaminetetraacetate]",14.5
3,"O=C(O)CN(CCOCCOCCN(CC(=O)O)CC(=O)O)CC(=O)O [EGTA, ethyleneglycoltetraacetate]",12.6
